In US20070299072A1, “KV1.5 POTASSIUM CHANNEL INHIBITORS” (Wyeth, priority 2006, published 2007):

Tests used:
Assay type in all cases: cell-based
Kv1.5 = target: T1, Kv1.5 (Homo sapiens, UniProt P22460); assay: Kv1.5 Patch Clamp EP (whole cell patch clamp; single point at 1 μM and IC50); conditions: for IC50: concentration response; for inhibition at 1 µM: single point at 1.0 μM, Kv1.5 stably over expressed in HEK or LTK- cells
T1 construct: expressed in transfected cells; host or cells: HEK or LTK- cells
T1 sequence (P22460 whole entry): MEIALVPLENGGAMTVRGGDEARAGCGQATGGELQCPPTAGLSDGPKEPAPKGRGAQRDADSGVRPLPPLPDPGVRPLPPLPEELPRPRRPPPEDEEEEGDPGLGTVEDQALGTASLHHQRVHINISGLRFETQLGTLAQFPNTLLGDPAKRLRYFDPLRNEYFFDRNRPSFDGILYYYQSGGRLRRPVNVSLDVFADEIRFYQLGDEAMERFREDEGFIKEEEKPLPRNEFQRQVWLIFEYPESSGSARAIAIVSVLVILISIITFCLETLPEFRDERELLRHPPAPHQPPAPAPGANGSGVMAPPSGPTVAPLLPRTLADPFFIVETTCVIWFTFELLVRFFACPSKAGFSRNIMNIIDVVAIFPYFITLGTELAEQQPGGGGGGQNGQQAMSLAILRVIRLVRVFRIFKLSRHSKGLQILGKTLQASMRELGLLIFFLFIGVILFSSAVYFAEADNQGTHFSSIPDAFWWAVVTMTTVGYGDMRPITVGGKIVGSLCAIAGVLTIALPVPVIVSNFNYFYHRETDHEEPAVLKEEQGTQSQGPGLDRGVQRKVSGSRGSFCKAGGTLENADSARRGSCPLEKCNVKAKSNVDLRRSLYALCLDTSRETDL
Method: The external solution is standard Tyrodes solution. […] Inhibition was measured at the end of the 1 second pulses and expressed relative to controls. Initial Kv1.5 inhibition is estimated by single point determinations done at 1 μM.

L-type calcium channels = assay: FLIPR L-type Calcium Channel Assay (calcium influx in HL-1 cells after KCl); conditions: read-out: L-type Ca2+ IC50
Method: HL-1 cells expressing endogenous L-type calcium channels are removed from culture flasks using trypsin, plated on fibronectin/gelatin-coated, clear-bottomed, black-walled 96-well microplates in Claycomb media (JRH Biosciences #51800) containing 10% fetal bovine serum, 4 mM L-glutamine, and 10 μM norepinephrine, and grown to confluency overnight. The next day, growth medium is aspirated from confluent cell monolayers and replaced with 100 μL per well Tyrode's solution (in mM: 130 NaCl, 4 KCl, 1.8 CaCl2, 1.0 MgCl2, 20 HEPES, 10 glucose, pH 7.35) and 50 μL per well FLIPR Calcium Assay kit, component A (#R-8033, Molecular Devices Corporation) and incubated for 60 min. in a 5% CO2 37° C. incubator. 50 μL per well test compounds are added to the plates and further incubated for 15 min. in a 5% CO2 37° C. incubator. All final solutions contain the anion exchange inhibitor, probenecid (2.5 mM). The 96-well plates are then placed in the center position of the FLIPR 1 (Fluorometric Imaging Plate Reader, Molecular Devices Corporation). Cell monolayers in each well are simultaneously illuminated at 488 nm with an Argon ion laser, and fluorescence emission is monitored using a 510-570 nm bandpass filter and a cooled CCD camera. To depolarize the plasma membrane and activate L-type calcium channels, 50 μL per well of 20 mM KCl (final concentration) are dispensed simultaneously to all 96 wells using the FLIPR's automatic 96-well pipettor. Fluorescence measurements are captured for 5 min. following KCl addition. Calcium influx, expressed as % control, is calculated for each concentration of test compound and concentration-response curves and IC50 values are generated using GraphPad Prism 4.0.

HERG = target: T2, HERG (Homo sapiens, UniProt Q12809); assay: HERG Patch Clamp EP (whole cell patch clamp, tail currents; single point at 10 μM and IC50); conditions: for IC50: concentration response; for inhibition at 10 µM: human, HEK cells stably overexpressing HERG, single point at 10 μM, HERG in HEK cells, read-out: HERG % Inhib. @ 10 μM
T2 construct: expressed in transfected cells; host or cells: HEK cells
T2 sequence (Q12809 whole entry): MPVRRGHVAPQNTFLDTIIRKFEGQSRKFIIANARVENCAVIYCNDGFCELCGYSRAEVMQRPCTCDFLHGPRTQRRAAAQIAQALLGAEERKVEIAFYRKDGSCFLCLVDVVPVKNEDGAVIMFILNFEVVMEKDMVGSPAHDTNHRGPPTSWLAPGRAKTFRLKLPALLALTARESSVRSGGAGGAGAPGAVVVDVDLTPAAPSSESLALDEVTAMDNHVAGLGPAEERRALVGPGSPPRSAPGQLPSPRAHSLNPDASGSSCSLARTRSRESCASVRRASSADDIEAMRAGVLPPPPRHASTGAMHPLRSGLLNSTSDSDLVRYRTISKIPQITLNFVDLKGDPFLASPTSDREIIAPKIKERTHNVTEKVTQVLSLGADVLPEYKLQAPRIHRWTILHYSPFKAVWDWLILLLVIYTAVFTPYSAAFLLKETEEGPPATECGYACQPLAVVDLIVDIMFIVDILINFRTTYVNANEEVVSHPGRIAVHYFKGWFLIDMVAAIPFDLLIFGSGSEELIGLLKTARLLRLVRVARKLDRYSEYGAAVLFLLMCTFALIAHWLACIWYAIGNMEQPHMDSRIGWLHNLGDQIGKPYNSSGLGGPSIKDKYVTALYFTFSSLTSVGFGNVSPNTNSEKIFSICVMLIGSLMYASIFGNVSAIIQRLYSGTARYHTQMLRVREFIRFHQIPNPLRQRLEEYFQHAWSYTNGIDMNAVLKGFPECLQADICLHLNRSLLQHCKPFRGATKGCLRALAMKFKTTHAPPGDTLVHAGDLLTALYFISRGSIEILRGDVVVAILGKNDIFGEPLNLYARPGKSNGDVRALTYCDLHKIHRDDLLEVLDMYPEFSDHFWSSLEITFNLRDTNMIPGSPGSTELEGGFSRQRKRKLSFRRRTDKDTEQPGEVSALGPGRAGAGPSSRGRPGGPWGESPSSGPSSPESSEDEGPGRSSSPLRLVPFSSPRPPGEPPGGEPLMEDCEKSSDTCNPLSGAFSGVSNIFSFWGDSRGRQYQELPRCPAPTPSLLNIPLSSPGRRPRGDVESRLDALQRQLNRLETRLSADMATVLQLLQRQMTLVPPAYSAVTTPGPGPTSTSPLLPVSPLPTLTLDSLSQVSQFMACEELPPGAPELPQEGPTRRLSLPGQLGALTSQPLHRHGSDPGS
Excerpt: The external solution is standard Tyrodes solution.

SMILES	IC50 (Kv1.5)	inhibition at 1 µM (Kv1.5)	IC50 (L-type calcium channels)	IC50 (HERG)	inhibition at 10 µM (HERG)
COc1ccc(CCN2C(=O)C3(CCN(C(=O)C4CC4)CC3)N(C)C2c2ccc(C3CC3)cc2)cc1 (stereo not shown) [Compound 4, 8-Cyclopropylcarbonyl-2-(4-cyclopropylphenyl)-3-[2-(4-methoxyphenyl)ethyl]-1-methyl-1,3,8-triaza-spiro[4.5]decan-4-one]	151 nM	94%	8 µM	9.5 µM	64%
COc1ccc(CCN2C(=O)C3(CCN(C(C)=O)CC3)N(C)C2c2ccc(C3CC3)cc2)cc1 (stereo not shown) [Compound 5, 8-Acetyl-2-(4-cyclopropylphenyl)-3-[2-(4-methoxyphenyl)ethyl]-1-methyl-1,3,8-triaza-spiro[4.5]decan-4-one]	514 nM	84%	36 µM	31 µM	8%
COc1ccc(CCN2C(=O)C3(CCN(C(=O)C4CC4)CC3)N(C)C2c2ccc(OC(F)F)cc2)cc1 (stereo not shown) [Compound 6, 8-Cyclopropylcarbonyl-2-(4-difluoromethoxyphenyl)-3-[2-(4-methoxyphenyl)-ethyl]-1-methyl-1,3,8-triazaspiro[4.5]decan-4-one]	–	68%	13 µM	–	85%
COc1ccc(CCN2C(=O)C3(CCN(C(N)=O)CC3)N(C)C2c2ccc(C3CC3)cc2)cc1 (stereo not shown) [Compound 7, 2-(4-Cyclopropylphenyl)-3-[2-(4-methoxyphenyl)ethyl]-1-methyl-4-oxo-1,3,8-triaza-spiro[4.5]decane-8-carboxylic acid amide]	579 nM	87%	9 µM	23.5 µM	12%
CNC(=O)N1CCC2(CC1)C(=O)N(CCc1ccc(OC)cc1)C(c1ccc(C3CC3)cc1)N2C (stereo not shown) [Compound 8, 2-(4-Cyclopropylphenyl)-3-[2-(4-methoxyphenyl)ethyl]-1-methyl-4-oxo-1,3,8-triaza-spiro[4.5]decane-8-carboxylic acid methyl amide]	350 nM	91%	11 µM	–	25%
COc1ccc(CCN2C(=O)C3(CCN(C(=O)N4CCCCC4)CC3)N(C)C2c2ccc(C3CC3)cc2)cc1 (stereo not shown) [Compound 9, 2-(4-Cyclopropylphenyl)-3-[2-(4-methoxyphenyl)ethyl]-1-methyl-8-(piperidine-1-carbonyl)-1,3,8-triaza-spiro[4.5]decan-4-one]	–	96%	6.2 µM	–	60%
CCN(CC)c1ccc(C2N(CCc3ccc(OC)cc3)C(=O)C3(CCN(C(N)=O)CC3)N2C)cc1 (stereo not shown) [Compound 10, 2-[4-(Diethylamino)phenyl]-3-[2-(4-methoxyphenyl)ethyl]-1-methyl-4-oxo-1,3,8-triaza-spiro[4.5]decane-8-carboxylic acid amide]	–	87%	12 µM	–	5%
COc1ccc(CCN2C(=O)C3(CCN(C(N)=O)CC3)N(C)C2c2ccc(C(F)(F)F)cc2)cc1 (stereo not shown) [Compound 11, 2-(4-Trifluoromethylphenyl)-3-[2-(4-methoxyphenyl)ethyl]-1-methyl-4-oxo-1,3,8-triaza-spiro[4.5]decane-8-carboxylic acid amide]	–	29%	–	–	33%
COc1ccc(CCN2C(=O)C3(CCN(C(N)=O)CC3)N(C)C2c2ccc(C(C)(C)C)cc2)cc1 (stereo not shown) [Compound 12, 2-(4-tert-Butylphenyl)-3-[2-(4-methoxyphenyl)ethyl]-1-methyl-4-oxo-1,3,8-triaza-spiro[4.5]decane-8-carboxylic acid amide]	611 nM	70%	8 µM	–	40%
COc1ccc(CCN2C(=O)C3(CCN(C(N)=O)CC3)N(C)C2c2ccc(OC(F)F)cc2)cc1 (stereo not shown) [Compound 13, 2-(4-Difluoromethoxyphenyl)-3-[2-(4-methoxyphenyl)ethyl]-1-methyl-4-oxo-1,3,8-triaza-spiro[4.5]decane-8-carboxylic acid amide]	–	46%	–	–	57%
CN1C(c2ccc(C3CC3)cc2)N(CCc2ccc(OC(F)(F)F)cc2)C(=O)C12CCN(C(N)=O)CC2 (stereo not shown) [Compound 14, 2-(4-Cyclopropylphenyl)-3-[2-(4-trifluoromethoxyphenyl)ethyl]-1-methyl-4-oxo-1,3,8-triaza-spiro[4.5]decane-8-carboxylic acid amide]	–	59%	15 µM	–	75%
CCNC(=O)N1CCC2(CC1)C(=O)N(CCc1ccc(OC)cc1)C(c1ccc(C(C)(C)C)cc1)N2C (stereo not shown) [Compound 15, 2-(4-tert-Butylphenyl)-3-[2-(4-methoxyphenyl)ethyl]-1-methyl-4-oxo-1,3,8-triaza-spiro[4.5]decane-8-carboxylic acid ethyl amide]	–	84%	2.5 µM	–	–
CCN(CC)C(=O)N1CCC2(CC1)C(=O)N(CCc1ccc(OC)cc1)C(c1ccc(C3CC3)cc1)N2C (stereo not shown) [Compound 19, 2-(4-Cyclopropylphenyl)-3-[2-(4-methoxyphenyl)ethyl]-1-methyl-4-oxo-1,3,8-triaza-spiro[4.5]decane-8-carboxylic acid diethylamide]	–	97%	5.3 µM	–	–
COc1ccc(CCN2C(=O)C3(CCN(C(=O)N(C)OC)CC3)N(C)C2c2ccc(C3CC3)cc2)cc1 (stereo not shown) [Compound 28, 2-(4-Cyclopropylphenyl)-N-methoxy-3-[2-(4-methoxyphenyl)ethyl]-N,1-dimethyl-4-oxo-1,3,8-triazaspiro[4.5]decane-8-carboxamide]	–	88%	8.4 µM	–	–
COc1ccc(CCN2C(=O)C3(CCN(C(=O)OC(C)C)CC3)N(C)C2c2ccc(C3CC3)cc2)cc1 (stereo not shown) [Compound 36, Isopropyl 2-(4-cyclopropylphenyl)-3-[2-(4-methoxyphenyl)ethyl]-1-methyl-4-oxo-1,3,8-triazaspiro[4.5]decane-8-carboxylate]	–	92%	7.4 µM	–	–
CCN(CC)c1ccc(C2N(CCc3ccc(OC)cc3)C(=O)C3(CCN(C(=O)OC(C)(C)C)CC3)N2C)cc1 (stereo not shown) [Compound 39, tert-Butyl 2-(4-diethylaminophenyl)-3-[2-(4-methoxyphenyl)ethyl]-1-methyl-4-oxo-1,3,8-triazaspiro[4.5]decane-8-carboxylate]	–	86%	4.4 µM	–	–
CN1C(c2ccc(C3CC3)cc2)N(CCCc2ccccc2)C(=O)C12CCN(C(=O)OC(C)(C)C)CC2 (stereo not shown) [Compound 47, 2-(4-Cyclopropylphenyl)-1-methyl-4-oxo-3-(3-phenylpropyl)-1,3,8-triazaspiro-[4.5]decane-8-carboxylic acid tert-butyl ester]	–	75%	20 µM	–	–
CNC(=O)N1CCC2(CC1)C(=O)N(CCCc1ccccc1)C(c1ccc(C3CC3)cc1)N2C (stereo not shown) [Compound 51, 2-(4-Cyclopropylphenyl)-1-methyl-4-oxo-3-(3-phenylpropyl)-1,3,8-triazaspiro-[4.5]decane-8-carboxylic acid methylamide]	–	73%	10 µM	–	–
COc1ccc(CCN2C(=O)C3(CCN(C(=O)OC(C)(C)C)CC3)N(C)C2c2ccc(C3CC3)cc2)cc1 (stereo not shown) [Compound 65, 2-(4-cyclopropylphenyl)-3-[2-(4-methoxyphenyl)ethyl]-1-methyl-4-oxo-1,3,8-triaza-spiro[4.5]decane-8-carboxylic acid tert-butyl ester]	–	80%	3.6 µM	–	–
